Results taken from patent publication US20250082656A1, “DOSAGE REGIMENS FOR TREATMENT OF DENGUE INFECTION” (Atea Pharmaceuticals, Inc., priority 2022, published 2025).

Tests used:
Dengue-3 (DENV-3) = assay: Neutral red assay of virus-induced CPE, DENV-3; assay type: cell-based; details: DENV3, Huh-7
Japanese encephalitis = assay: Neutral red assay of virus-induced CPE, JEV; assay type: cell-based; details: SA-14, Huh-7, neutral red assay
Dengue serotype 2 = assay: In vitro antiviral potency, summary over strains, Dengue serotype 2; assay type: cell-based; details: Dengue virus
DENV4 NS5 [1] = biological target: T1, DENV4 NS5 (Dengue virus type 4, UniProt P09866); assay: Thermal shift assay, DENV4 NS5; details: read-out: ΔTM
DENV4 NS5 [2] = biological target: T1, DENV4 NS5; assay: Nucleotide analogue incorporation / discrimination assay, DENV4 NS5; assay type: biochemical; details: GTP for AT-9010 and AT-9002, UTP for SOF-TP
Procedure: (§1) The chain-terminating efficiency of Compound 5 was measured in competitive nucleotide incorporation assays using all four DENV serotypes. […] In comparison, sofosbuvir triphosphate is incorporated into the RNA less than 1 time for every 100 UTP (native uridine triphosphate) incorporations.
The nature of regular inserted Watson-Crick nucleotides is indicated in the right of the gel. […] Quantification of band-products greater in size than the G/AT (+5) band relative to the G/AT (+5) band were measured using a Typhoon FluorImager, and allowed to calculate the discrimination value. The incorporation rates for […] and AT9002 are compared to that of GTP, and to that of UTP in the case of SOF-TP.
(§2) Measurements and quantitations were as in FIG. 19B.
(§3) DENV NS5 was pre-incubated with the annealed P10/T20 RNA in an assembly buffer containing 20 mM HEPES pH 7.5, 10% glycerol, 5 mM MgCl2, and 5 mM DTT for 10 min at 30° C. to create an active RNA elongation complex.
(§4) Reactions were started by adding AT-9010 with either all four NTPs or UTP, ATP, and CTP only.
(§5) Single nucleotide incorporation was tested as follows. Reactions were started by adding the corresponding NTP or analogue. Final concentrations were 1 μM NS5, 0.25 μM P10/T20, 100 μM NTP or analogue in a final buffer containing 20 mM HEPES pH 7.5, 15% glycerol, 5 mM MgCl2, and 5 mM DTT.
(§6) Reactions were quenched at the designated time points in 3× volume FBD stop solution (formamide, 10 mM EDTA) and analyzed on 20% acrylamide-bisacrylamide (19:1) […] sequencing gels. RNA products were visualized using a Typhoon FluorImager then analyzed and quantified using ImageQuant software.

DENV2 MTase domain = DENV2 MTase domain (Dengue virus type 2, UniProt P14340); assay: Thermal shift assay, DENV2 MTase domain; details: read-out: ΔTM
[3] = In vivo formation of AT-9010 in PBMCs, mice
DENV2 NS5 = DENV2 NS5 (Dengue virus type 2, UniProt P14340); assay: Nucleotide analogue incorporation / discrimination assay, DENV2 NS5; assay type: biochemical
Procedure: as §1
The experimental procedure is provided in Example 10.
as §2
DENV NS5 was preincubated with the annealed P10/T20 RNA in an assembly buffer containing 20 mM HEPES pH 7.5, 10% glycerol, 5 mM MgCl2 and 5 mM DTT for 10 min at 30° C. to create an active RNA elongation complex. Reactions were started by adding AT-9010 with either all four NTPs, or UTP, ATP and CTP only. […] Reactions were quenched at indicated timepoints in 2× volume FBD stop solution (formamide, 10 mM EDTA) and analysed on 20% acrylamide:bisacrylamide (19:1), […] sequencing gels. RNA products were visualized using a Typhoon FluorImager and analyzed using ImageQuant software.
as §3, §4, §5, §6

DENV4 MTase domain = DENV4 MTase domain (Dengue virus type 4, UniProt P09866); assay: Thermal shift assay, DENV4 MTase domain; details: read-out: ΔTM
DENV2 NS5MTase protein = DENV2 NS5MTase protein (Dengue virus type 2, UniProt P14340); assay: MTase activity filter-binding assay (FBA); assay type: biochemical; details: 30° C., 30 min, read-out: IC50 against the MTase domain
Procedure: A) Dose-response determination using a filter binding assay (FBA). Reactions were incubated at 30° C. during 30 min and the enzymatic activity was determined using FBA as described in Example 33. […] Interacting residues are labelled and shown as sticks. E) Structural comparison of the position of a GTP (pink) and AT9010 (light brown) bound in the Cap binding site. Cap binding site structures belong to DENV2 (in pink—PDB 2P1D)) and DENV3 (in light brown) MTases and are conserved.
The transfer of tritiated methyl from [3H]-SAM onto RNA substrate was monitored by filter-binding assay (FBA), performed according to the method described previously (Paesen et al., 2015). […] FBA was carried out in reaction mixture [40 mM Tris-HCl (pH 8.0), 1 mM DTT, 2 μM SAM and 0.1 μM 3H-SAM (Perkin Elmer)] in the presence of 0.7 μM mGpppAC4 synthetic RNA and DENV2 NS5MTase protein (500 nM). The enzyme was first mixed with the compound (0.5 to 1000 μM) suspended in water before the addition of RNA substrate and SAM and then incubated at 30° C. Reaction mixtures were stopped after 30 min by their 10-fold dilution in ice-cold water. […] They were soaked with scintillation fluid (Perkin Elmer), and 3H-methyl transfer to the RNA substrates was determined using a Wallac MicroBeta TriLux Liquid Scintillation Counter (Perkin Elmer). […]

DENV3 NS5 = DENV3 NS5 (Dengue virus type 3, UniProt Q6YMS4); assay: Nucleotide analogue incorporation / discrimination assay, DENV3 NS5; assay type: biochemical; details: GTP for AT-9010 and AT-9002, UTP for SOF-TP
Procedure: as §1, §2, §3, §4, §5, §6

T1 sequence (P09866 2488-3387): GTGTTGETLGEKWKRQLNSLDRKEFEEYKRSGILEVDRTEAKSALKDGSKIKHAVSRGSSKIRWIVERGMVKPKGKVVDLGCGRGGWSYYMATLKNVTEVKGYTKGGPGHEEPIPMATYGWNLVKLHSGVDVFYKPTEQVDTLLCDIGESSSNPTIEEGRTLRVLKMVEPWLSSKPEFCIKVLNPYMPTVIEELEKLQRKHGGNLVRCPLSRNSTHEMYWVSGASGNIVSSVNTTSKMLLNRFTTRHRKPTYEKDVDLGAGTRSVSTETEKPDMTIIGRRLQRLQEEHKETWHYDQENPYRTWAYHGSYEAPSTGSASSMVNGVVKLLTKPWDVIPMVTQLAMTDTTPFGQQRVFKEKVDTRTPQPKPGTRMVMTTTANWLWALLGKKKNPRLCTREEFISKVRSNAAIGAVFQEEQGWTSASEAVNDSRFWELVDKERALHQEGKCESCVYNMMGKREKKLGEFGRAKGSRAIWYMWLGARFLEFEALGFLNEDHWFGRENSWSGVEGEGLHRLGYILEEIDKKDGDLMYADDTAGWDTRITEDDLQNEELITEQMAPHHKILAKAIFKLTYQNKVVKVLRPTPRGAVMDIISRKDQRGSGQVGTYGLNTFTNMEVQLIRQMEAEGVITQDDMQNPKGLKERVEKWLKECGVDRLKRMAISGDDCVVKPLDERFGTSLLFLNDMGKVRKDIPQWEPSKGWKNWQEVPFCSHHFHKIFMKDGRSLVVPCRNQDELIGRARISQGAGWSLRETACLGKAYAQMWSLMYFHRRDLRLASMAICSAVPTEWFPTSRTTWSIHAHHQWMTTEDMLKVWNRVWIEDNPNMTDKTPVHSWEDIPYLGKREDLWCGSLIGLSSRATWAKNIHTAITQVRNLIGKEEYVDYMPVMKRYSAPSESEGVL
Sequence of DENV2 MTase domain (P14340 2493-2755 limits assumed): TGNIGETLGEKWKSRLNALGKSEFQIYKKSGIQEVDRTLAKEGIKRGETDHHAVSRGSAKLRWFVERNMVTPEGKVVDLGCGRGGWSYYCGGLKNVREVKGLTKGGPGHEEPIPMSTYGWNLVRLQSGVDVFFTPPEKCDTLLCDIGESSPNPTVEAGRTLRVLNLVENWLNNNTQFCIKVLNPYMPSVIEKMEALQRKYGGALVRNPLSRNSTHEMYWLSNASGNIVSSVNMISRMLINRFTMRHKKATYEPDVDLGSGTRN
Sequence of DENV3 NS5 (Q6YMS4 2491-3390): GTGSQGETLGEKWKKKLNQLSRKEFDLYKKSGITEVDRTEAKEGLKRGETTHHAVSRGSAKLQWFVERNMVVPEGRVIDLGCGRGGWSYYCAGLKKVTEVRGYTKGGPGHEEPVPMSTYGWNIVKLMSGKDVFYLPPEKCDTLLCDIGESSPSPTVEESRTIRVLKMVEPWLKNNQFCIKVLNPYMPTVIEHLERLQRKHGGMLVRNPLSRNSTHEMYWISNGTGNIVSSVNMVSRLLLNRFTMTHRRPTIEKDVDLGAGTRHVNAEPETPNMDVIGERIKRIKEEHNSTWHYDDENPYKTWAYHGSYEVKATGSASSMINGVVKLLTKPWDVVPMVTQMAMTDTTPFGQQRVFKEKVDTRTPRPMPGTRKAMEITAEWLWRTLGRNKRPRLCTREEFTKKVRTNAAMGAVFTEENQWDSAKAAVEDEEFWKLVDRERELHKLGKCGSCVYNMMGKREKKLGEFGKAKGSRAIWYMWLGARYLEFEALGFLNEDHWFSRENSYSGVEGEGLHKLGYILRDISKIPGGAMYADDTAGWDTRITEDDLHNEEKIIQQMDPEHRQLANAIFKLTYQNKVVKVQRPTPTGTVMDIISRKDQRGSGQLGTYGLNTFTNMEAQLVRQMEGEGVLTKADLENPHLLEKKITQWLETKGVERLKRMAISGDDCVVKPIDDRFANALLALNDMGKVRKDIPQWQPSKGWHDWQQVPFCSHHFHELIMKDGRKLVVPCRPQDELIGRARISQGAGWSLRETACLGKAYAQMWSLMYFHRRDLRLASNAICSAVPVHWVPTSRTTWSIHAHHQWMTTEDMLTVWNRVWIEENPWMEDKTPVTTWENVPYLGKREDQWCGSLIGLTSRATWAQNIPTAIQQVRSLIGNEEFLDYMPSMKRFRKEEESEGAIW
Sequence of DENV4 MTase domain (P09866 2489-2751): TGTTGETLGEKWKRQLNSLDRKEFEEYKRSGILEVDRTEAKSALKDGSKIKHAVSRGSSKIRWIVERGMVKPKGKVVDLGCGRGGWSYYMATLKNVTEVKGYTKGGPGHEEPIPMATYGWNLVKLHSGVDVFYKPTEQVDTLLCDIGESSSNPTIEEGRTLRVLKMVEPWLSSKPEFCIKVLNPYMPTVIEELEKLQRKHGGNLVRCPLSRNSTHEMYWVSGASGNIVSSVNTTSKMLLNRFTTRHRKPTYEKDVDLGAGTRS
Sequence of DENV2 NS5MTase protein (P14340 2492-2787 limits assumed): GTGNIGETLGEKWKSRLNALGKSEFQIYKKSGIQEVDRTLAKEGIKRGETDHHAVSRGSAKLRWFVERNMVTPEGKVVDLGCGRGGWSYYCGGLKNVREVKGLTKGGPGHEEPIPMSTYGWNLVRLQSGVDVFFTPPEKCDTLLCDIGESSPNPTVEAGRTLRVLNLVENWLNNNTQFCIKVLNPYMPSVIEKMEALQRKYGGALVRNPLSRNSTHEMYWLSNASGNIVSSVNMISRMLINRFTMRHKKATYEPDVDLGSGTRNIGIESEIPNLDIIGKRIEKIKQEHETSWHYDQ

CNc1nc(N)nc2c1ncn2[C@@H]1O[C@H](CO[P@](=O)(N[C@@H](C)C(=O)OC(C)C)Oc2ccccc2)[C@@H](O)[C@@]1(C)F [Compound 1, isopropyl ((R)-(((2R,3R,4R,5R)-5-(2-amino-6-(methylamino)-9H-purin-9-yl)-4-fluoro-3-hydroxy-4-methyltetrahydrofuran-2-yl)methoxy)(phenoxy)phosphoryl)-L-alaninate]
EC50 (Dengue-3 (DENV-3)): 0.77 µM
EC50 (Japanese encephalitis): 0.21 µM
SI (flaviviruses; DENV-2 NGC Huh-7, DENV2 clinical isolate PBMC and BHK-21, DENV-3 H87 Huh-7, in each case): > 210
CC50 (flaviviruses; read-out: CC50 (concentration required to kill 50% of cells exposed to drug only), exceeded the highest concentration tested): 85 to 170 µM
EC50 (Dengue serotype 2): < 7 µM

C[C@@]1(F)[C@H](O)[C@@H](COP(=O)(O)OP(=O)(O)OP(=O)(O)O)O[C@H]1n1cnc2c(=O)[nH]c(N)nc21 [Compound 5]
ΔTm at 100 µM (DENV4 NS5 [1]): 4.8 ± 0.1 °C
Preference (discrimination) native nucleotide > analogue (DENV4 NS5 [2]): 11.2 ± 0.7
ΔTm at 100 µM (DENV2 MTase domain): 4 ± 0.1 °C
concentration of AT-9010 in PBMCs ([3]; loading dose 500 mg/kg then 250 mg/kg 4 h later, 4 h after the second dose): 0.297 pmol/10^6 cells
concentration of AT-9010 in PBMCs ([3]; loading dose 500 mg/kg then 250 mg/kg 4 h later, 12 h after the second dose): 0.322 pmol/10^6 cells
concentration of AT-9010 in PBMCs ([3]; single oral dose 50 mg/kg, 12 h): 0.092 pmol/10^6 cells
Preference (discrimination) native nucleotide > analogue (DENV2 NS5; DENV2, GTP for AT-9010 and AT-9002, UTP for SOF-TP): 9.3 ± 0.1
discrimination factor (preference for GTP>Compound 5) (DENV2 NS5; DENV-2 NS5, all four NTPs, band product intensities): 12.6±4.3
effect on RNA synthesis after incorporation (DENV2 NS5; absence of GTP, next correct nucleotide (UTP) present): immediate chain-termination of RNA synthesis
ΔTm at 100 µM (DENV4 MTase domain): 2.9 ± 0.1 °C
IC50 (DENV2 NS5MTase protein): 29.6 µM
Preference (discrimination) native nucleotide > analogue (DENV3 NS5): 11.6 ± 1.3
